Test: xn = mol fraction of the nth substance listed
Conditions: 100 kPa, Liquid; for viscosity: Falling or rolling sphere viscometry; for mass density: Vibrating tube method

CCCCC1CCCCC1 [butylcyclohexane] + CCCCCCCCCC
Conditions	mass density, 293.15 K [kg/m3]	mass density, 298.15 K [kg/m3]	mass density, 303.15 K [kg/m3]	mass density, 308.15 K [kg/m3]	mass density, 313.15 K [kg/m3]	viscosity, 293.15 K [mPa·s]	viscosity, 298.15 K [mPa·s]	viscosity, 303.15 K [mPa·s]	viscosity, 308.15 K [mPa·s]	viscosity, 313.15 K [mPa·s]
x1 = 0.0508	733.71	729.95	726.17	722.37	718.56	0.944	0.879	0.82	0.767	0.72
x1 = 0.1001	736.83	733.07	729.29	725.5	721.69	0.956	0.89	0.831	0.778	0.73
x1 = 0.1992	743.19	739.43	735.66	731.87	728.07	0.984	0.914	0.853	0.798	0.748
x1 = 0.2994	749.74	745.99	742.22	738.44	734.64	1.014	0.94	0.877	0.819	0.768
x1 = 0.3996	756.42	752.67	748.91	745.13	741.34	1.047	0.969	0.903	0.842	0.789
x1 = 0.5002	763.27	759.53	755.76	751.99	748.2	1.084	1.003	0.932	0.869	0.813
x1 = 0.5955	769.88	766.14	762.38	758.61	754.83	1.122	1.037	0.963	0.897	0.84
x1 = 0.6988	777.19	773.45	769.7	765.93	762.15	1.166	1.078	1.001	0.931	0.871
x1 = 0.8012	784.6	780.86	777.11	773.34	769.57	1.21	1.121	1.039	0.966	0.902
x1 = 0.8998	791.88	788.15	784.4	780.63	776.86	1.253	1.159	1.074	0.998	0.932
x1 = 0.9497	795.63	791.89	788.14	784.37	780.61	1.275	1.178	1.091	1.013	0.946
x1 = 1	799.44	795.7	791.95	788.19	784.41	1.296	1.196	1.107	1.027	0.958

CCCCC1CCCCC1 [butylcyclohexane] + CCCCCCCCCCCC
Conditions	mass density, 293.15 K [kg/m3]	mass density, 298.15 K [kg/m3]	mass density, 303.15 K [kg/m3]	mass density, 308.15 K [kg/m3]	mass density, 313.15 K [kg/m3]	viscosity, 293.15 K [mPa·s]	viscosity, 298.15 K [mPa·s]	viscosity, 303.15 K [mPa·s]	viscosity, 308.15 K [mPa·s]	viscosity, 313.15 K [mPa·s]
x1 = 0.0511	750.97	747.36	743.73	740.1	736.45	1.492	1.369	1.258	1.157	1.07
x1 = 0.0989	752.88	749.26	745.63	741.99	738.34	1.486	1.363	1.251	1.152	1.067
x1 = 0.2004	757.06	753.44	749.8	746.15	742.5	1.467	1.346	1.238	1.14	1.056
x1 = 0.3002	761.38	757.75	754.1	750.45	746.78	1.45	1.331	1.224	1.128	1.047
x1 = 0.4012	765.97	762.34	758.68	755.02	751.35	1.431	1.314	1.21	1.117	1.036
x1 = 0.5005	770.74	767.1	763.43	759.76	756.07	1.415	1.298	1.196	1.106	1.026
x1 = 0.6006	775.82	772.16	768.48	764.8	761.1	1.393	1.279	1.18	1.091	1.013
x1 = 0.7008	781.21	777.53	773.83	770.13	766.43	1.373	1.262	1.165	1.078	1.002
x1 = 0.7998	786.85	783.16	779.45	775.73	771.99	1.351	1.244	1.15	1.064	0.99
x1 = 0.8996	792.92	789.21	785.47	781.73	777.98	1.331	1.226	1.134	1.049	0.978
x1 = 0.9494	796.1	792.38	788.64	784.9	781.13	1.32	1.216	1.126	1.04	0.969
x1 = 1	799.44	795.7	791.95	788.19	784.41	1.296	1.196	1.107	1.027	0.958

CCCCC1CCCCC1 [butylcyclohexane] + CCCCCCCCCCCCCC
Conditions	mass density, 293.15 K [kg/m3]	mass density, 298.15 K [kg/m3]	mass density, 303.15 K [kg/m3]	mass density, 308.15 K [kg/m3]	mass density, 313.15 K [kg/m3]	viscosity, 293.15 K [mPa·s]	viscosity, 298.15 K [mPa·s]	viscosity, 303.15 K [mPa·s]	viscosity, 308.15 K [mPa·s]	viscosity, 313.15 K [mPa·s]
x1 = 0.0516	764.33	760.8	757.26	753.73	750.2	2.28	2.052	1.86	1.694	1.553
x1 = 0.1	765.53	762	758.46	754.92	751.38	2.234	2.011	1.823	1.662	1.523
x1 = 0.2001	768.14	764.6	761.06	757.51	753.96	2.135	1.924	1.746	1.593	1.463
x1 = 0.2988	770.93	767.38	763.83	760.27	756.69	2.037	1.838	1.67	1.526	1.401
x1 = 0.4001	774.02	770.46	766.89	763.31	759.72	1.934	1.749	1.592	1.457	1.341
x1 = 0.498	777.26	773.68	770.08	766.49	762.88	1.834	1.662	1.517	1.391	1.282
x1 = 0.6006	780.95	777.36	773.74	770.12	766.49	1.728	1.571	1.436	1.32	1.218
x1 = 0.7005	784.9	781.27	777.63	773.98	770.33	1.625	1.481	1.358	1.25	1.155
x1 = 0.7999	789.23	785.57	781.9	778.21	774.53	1.521	1.391	1.279	1.18	1.092
x1 = 0.9002	794.07	790.38	786.66	782.94	779.22	1.416	1.299	1.199	1.109	1.029
x1 = 0.95	796.66	792.94	789.21	785.48	781.73	1.363	1.254	1.159	1.073	0.998
x1 = 1	799.44	795.7	791.95	788.19	784.41	1.296	1.196	1.107	1.027	0.958

Source: the NIST ThermoML archive (doi:10.1021/je400835u)
